From EPA's ToxValDB 9.5 (doi:10.2903/j.efsa.2008.119r)

What was measured:
Bibionidae = details: chronic/long-term; duration: 28 days
Coturnix japonica = details: reproduction developmental
Daphnia magna = details: chronic/long-term; duration: 21 days; reproduction
Mus musculus = details: chronic; duration: 2 years; hematological
Oncorhynchus mykiss = details: chronic/long-term; duration: 21 days; growth
Oryctolagus sp. = details: reproduction developmental; mortality
Tagia sp. = details: chronic/long-term; duration: 56 days
Typhlodromus pyri = details: not reported; mortality

With COC(=O)c1cc(Oc2ccc(Cl)cc2Cl)ccc1[N+](=O)[O-] [Bifenox] the NOEC (Bibionidae) was 0.015 mg/L, the NOEC (Coturnix japonica) was 290 mg/kg-day and the NOEC (Daphnia magna) was 0.00015 mg/L. The NOAEL (Mus musculus) was 30 mg/kg-day, the NOEC (Oncorhynchus mykiss) was 0.0091 mg/L and the NOAEL (Oryctolagus sp.) was 50 mg/kg-day. The NOAEL (Rattus norvegicus; chronic) was 16 mg/kg-day, the NOAEL (Rattus norvegicus; reproduction developmental, reproduction) was 44.5 mg/kg-day and the NOEC (Tagia sp.) was 5.1 mg/kg. It also gave an LEL (Typhlodromus pyri) of 720 g/ha.
